Legend:
Test in all cases: radiometric filter-binding kinase assay, Kinase HotSpot
Details in all cases: compound 0.5 µM; ATP 10 µM
ADRBK2 (human) = ADRBK2 (human) (UniProt P35626)
AKT3 (human) = AKT3 (human) (UniProt Q9Y243)
ALK (human) = ALK (human) (UniProt Q9UM73)
CAMK1 (human) = CAMK1 (human) (UniProt Q14012)
CDC42BPA (human) = CDC42BPA (human) (UniProt Q5VT25)
CDK5 CDK5R1 p25 (human) = CDK5 CDK5R1 p25 (human) (UniProt Q00535+Q15078)
CDK9 CCNT1 (human) = CDK9 CCNT1 (human) (UniProt P50750+O60563)
CHUK (human) = CHUK (human) (UniProt O15111)
CLK3 (human) = CLK3 (human) (UniProt P49761)
CSNK1G1 (human) = CSNK1G1 (human) (UniProt Q9HCP0)
EPHA2 (human) = EPHA2 (human) (UniProt P29317)
EPHA5 (human) = EPHA5 (human) (UniProt P54756)
FER (human) = FER (human) (UniProt P16591)
FGR (human) = FGR (human) (UniProt P09769)
GRK6 (human) = GRK6 (human) (UniProt P43250)
IKBKB (human) = IKBKB (human) (UniProt O14920)
Sequence of IKBKB (human) (O14920 whole entry, looked up): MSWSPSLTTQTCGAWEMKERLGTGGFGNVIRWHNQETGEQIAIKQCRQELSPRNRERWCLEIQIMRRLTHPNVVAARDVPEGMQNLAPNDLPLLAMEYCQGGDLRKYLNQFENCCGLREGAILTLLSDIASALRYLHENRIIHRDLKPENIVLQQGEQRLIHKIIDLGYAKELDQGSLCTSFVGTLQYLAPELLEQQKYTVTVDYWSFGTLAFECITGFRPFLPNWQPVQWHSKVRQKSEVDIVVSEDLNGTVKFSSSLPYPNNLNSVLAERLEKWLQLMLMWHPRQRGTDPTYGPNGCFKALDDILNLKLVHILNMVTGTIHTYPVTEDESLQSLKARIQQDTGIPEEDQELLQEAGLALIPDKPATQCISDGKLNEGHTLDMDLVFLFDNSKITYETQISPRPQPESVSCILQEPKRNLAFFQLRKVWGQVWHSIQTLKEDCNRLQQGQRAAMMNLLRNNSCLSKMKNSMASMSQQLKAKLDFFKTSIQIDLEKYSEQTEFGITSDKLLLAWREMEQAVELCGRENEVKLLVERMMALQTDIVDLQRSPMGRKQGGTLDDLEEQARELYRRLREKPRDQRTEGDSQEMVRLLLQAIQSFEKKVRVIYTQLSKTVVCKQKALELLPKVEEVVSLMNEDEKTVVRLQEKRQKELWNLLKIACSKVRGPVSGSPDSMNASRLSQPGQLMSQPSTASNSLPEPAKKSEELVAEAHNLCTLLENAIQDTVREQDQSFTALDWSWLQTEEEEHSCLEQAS

INSRR (human) = INSRR (human) (UniProt P14616)
MAP3K3 (human) = MAP3K3 (human) (UniProt Q99759)
MAPK13 (human) = MAPK13 (human) (UniProt O15264)
MAPK8 (human) = MAPK8 (human) (UniProt P45983)
MAPK9 (human) = MAPK9 (human) (UniProt P45984)
MAPKAPK5 (human) = MAPKAPK5 (human) (UniProt Q8IW41)
Sequence of MAPKAPK5 (human) (Q8IW41 whole entry, looked up): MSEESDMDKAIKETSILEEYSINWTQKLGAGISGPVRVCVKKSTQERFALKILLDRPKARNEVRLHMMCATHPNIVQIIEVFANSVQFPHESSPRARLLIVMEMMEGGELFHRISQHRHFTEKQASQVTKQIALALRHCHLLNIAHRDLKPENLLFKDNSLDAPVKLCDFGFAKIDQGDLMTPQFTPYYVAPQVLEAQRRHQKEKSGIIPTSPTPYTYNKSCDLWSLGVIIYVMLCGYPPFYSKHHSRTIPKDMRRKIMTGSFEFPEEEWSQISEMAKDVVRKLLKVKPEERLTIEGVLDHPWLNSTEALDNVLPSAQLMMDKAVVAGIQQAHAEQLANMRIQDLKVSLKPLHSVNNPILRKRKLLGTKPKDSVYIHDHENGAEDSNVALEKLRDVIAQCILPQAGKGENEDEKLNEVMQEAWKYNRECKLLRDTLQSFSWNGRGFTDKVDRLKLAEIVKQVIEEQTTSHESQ

MET (human) = MET (human) (UniProt P08581)
MKNK2 (human) = MKNK2 (human) (UniProt Q9HBH9)
Sequence of MKNK2 (human) (Q9HBH9 whole entry, looked up): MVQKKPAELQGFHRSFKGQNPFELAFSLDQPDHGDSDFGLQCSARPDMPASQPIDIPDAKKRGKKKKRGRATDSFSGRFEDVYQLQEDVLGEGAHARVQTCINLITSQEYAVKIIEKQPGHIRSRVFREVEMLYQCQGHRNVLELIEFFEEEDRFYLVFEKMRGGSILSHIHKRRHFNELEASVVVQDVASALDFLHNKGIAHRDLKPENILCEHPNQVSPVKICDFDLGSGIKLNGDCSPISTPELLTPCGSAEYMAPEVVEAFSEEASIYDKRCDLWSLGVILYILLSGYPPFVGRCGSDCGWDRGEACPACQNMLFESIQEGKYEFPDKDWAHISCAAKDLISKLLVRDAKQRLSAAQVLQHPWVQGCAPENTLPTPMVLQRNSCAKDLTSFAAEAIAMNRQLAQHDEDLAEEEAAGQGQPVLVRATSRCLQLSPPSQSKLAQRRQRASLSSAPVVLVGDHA

PAK1 (human) = PAK1 (human) (UniProt Q13153)
PAK2 (human) = PAK2 (human) (UniProt Q13177)
PAK3 (human) = PAK3 (human) (UniProt O75914)
PAK4 (human) = PAK4 (human) (UniProt O96013)
PDGFRB (human) = PDGFRB (human) (UniProt P09619)
PRKCB2 (human) = PRKCB2 (human) (UniProt P05771)
PRKCI (human) = PRKCI (human) (UniProt P41743)
PRKG2 (human) = PRKG2 (human) (UniProt Q13237)
PRKX (human) = PRKX (human) (UniProt P51817)
ROCK1 (human) = ROCK1 (human) (UniProt Q13464)
ROCK2 (human) = ROCK2 (human) (UniProt O75116)
RPS6KA4 KD2 (human) = RPS6KA4 KD2 (human) (UniProt O75676)
RPS6KB2 (human) = RPS6KB2 (human) (UniProt Q9UBS0)
SRPK1 (human) = SRPK1 (human) (UniProt Q96SB4)
Sequence of SRPK1 (human) (Q96SB4 whole entry, looked up): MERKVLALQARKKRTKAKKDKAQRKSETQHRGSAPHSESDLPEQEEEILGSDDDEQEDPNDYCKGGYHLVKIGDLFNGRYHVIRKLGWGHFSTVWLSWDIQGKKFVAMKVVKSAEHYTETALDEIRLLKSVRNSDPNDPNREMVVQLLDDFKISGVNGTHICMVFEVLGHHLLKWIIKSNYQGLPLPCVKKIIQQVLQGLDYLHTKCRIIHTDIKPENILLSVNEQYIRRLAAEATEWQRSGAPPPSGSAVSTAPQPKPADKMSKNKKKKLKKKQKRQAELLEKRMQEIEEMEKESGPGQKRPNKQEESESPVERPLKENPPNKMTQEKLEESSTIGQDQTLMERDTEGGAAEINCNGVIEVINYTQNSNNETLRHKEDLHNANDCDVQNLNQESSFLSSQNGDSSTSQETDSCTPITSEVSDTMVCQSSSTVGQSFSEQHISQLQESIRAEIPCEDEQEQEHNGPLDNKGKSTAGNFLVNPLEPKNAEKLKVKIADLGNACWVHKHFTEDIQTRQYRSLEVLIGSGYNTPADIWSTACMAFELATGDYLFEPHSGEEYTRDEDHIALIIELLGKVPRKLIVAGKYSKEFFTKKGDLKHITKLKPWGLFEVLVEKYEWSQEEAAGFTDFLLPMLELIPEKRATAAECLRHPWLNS

SYK (human) = SYK (human) (UniProt P43405)
TSSK2 (human) = TSSK2 (human) (UniProt Q96PF2)
VRK1 (human) = VRK1 (human) (UniProt Q99986)
WNK3 (human) = WNK3 (human) (UniProt Q9BYP7)

Sequence of CDK5 CDK5R1 p25 (human) (Q00535 whole entry, looked up): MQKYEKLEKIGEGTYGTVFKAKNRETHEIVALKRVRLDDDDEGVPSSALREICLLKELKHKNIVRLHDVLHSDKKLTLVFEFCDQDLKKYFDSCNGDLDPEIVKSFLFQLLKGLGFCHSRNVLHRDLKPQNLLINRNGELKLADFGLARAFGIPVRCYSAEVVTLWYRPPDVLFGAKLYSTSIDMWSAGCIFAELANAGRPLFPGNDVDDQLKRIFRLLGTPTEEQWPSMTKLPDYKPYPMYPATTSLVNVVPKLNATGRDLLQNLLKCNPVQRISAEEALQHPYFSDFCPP
Sequence of CDK5 CDK5R1 p25 (human) (Q15078 whole entry, looked up): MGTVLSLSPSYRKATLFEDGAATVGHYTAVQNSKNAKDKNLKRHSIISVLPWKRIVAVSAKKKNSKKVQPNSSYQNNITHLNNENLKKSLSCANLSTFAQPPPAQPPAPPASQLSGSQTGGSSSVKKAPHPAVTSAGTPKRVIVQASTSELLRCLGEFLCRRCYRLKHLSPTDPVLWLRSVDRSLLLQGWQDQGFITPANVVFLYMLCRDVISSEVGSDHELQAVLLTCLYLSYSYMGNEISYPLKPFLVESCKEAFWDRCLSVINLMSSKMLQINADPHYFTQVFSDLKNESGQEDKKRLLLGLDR
Sequence of ALK (human) (Q9UM73 whole entry, looked up): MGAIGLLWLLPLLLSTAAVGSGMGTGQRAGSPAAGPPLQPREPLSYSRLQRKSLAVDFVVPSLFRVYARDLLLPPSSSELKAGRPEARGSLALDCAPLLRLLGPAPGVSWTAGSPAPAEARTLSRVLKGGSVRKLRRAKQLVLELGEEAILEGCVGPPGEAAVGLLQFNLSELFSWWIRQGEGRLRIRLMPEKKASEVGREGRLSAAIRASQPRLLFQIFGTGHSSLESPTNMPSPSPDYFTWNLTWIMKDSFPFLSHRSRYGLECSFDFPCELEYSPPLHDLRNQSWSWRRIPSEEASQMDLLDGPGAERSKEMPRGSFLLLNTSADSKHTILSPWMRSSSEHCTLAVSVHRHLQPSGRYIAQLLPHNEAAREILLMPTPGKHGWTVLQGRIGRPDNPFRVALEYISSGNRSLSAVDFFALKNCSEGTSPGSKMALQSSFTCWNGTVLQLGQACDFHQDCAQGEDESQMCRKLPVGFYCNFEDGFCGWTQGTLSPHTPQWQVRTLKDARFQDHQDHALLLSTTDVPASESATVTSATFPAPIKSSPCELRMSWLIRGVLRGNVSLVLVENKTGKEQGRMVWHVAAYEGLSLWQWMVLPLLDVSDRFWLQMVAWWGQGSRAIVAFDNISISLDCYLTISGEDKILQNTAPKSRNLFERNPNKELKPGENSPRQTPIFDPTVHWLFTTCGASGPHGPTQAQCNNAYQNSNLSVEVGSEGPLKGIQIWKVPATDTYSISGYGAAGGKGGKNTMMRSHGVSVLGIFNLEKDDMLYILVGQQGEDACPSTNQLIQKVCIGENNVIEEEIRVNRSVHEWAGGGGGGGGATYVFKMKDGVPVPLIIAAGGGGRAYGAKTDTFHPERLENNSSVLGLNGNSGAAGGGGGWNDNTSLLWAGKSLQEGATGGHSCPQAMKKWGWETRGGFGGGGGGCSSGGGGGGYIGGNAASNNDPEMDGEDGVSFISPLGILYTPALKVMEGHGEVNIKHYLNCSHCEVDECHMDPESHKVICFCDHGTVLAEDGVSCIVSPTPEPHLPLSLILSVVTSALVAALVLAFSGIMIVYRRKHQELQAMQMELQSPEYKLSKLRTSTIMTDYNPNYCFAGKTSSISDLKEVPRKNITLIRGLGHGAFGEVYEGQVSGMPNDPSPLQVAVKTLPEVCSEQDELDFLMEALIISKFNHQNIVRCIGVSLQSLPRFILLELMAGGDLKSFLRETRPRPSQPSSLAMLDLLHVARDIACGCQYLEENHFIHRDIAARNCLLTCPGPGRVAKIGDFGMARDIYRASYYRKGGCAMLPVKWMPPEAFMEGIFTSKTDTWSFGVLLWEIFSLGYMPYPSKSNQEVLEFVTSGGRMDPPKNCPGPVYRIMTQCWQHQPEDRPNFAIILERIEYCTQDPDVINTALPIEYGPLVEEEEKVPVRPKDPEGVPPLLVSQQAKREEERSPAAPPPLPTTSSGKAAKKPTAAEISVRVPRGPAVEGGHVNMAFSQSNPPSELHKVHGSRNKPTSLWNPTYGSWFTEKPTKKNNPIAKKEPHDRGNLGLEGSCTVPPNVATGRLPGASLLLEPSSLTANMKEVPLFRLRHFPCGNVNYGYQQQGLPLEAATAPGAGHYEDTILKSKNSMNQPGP
Sequence of CAMK1 (human) (Q14012 whole entry, looked up): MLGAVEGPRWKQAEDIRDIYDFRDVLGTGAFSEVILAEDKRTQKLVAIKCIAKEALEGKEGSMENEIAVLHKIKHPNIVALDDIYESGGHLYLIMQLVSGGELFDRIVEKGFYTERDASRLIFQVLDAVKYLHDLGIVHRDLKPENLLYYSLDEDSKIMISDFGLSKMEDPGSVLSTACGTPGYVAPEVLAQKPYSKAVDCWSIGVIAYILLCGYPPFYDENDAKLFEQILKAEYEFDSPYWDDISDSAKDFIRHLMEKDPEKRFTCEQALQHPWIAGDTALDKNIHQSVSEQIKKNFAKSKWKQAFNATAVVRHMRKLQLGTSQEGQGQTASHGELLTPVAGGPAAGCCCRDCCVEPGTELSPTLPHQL

O=c1cc(N2CCOCC2)oc2c(-c3ccccc3)cccc12 gave a residual activity (ADRBK2 (human)) of 99.8%, a residual activity (AKT3 (human)) of 102% and a residual activity (ALK (human)) of 92.4%. The residual activity (CAMK1 (human)) was 96.7%, the residual activity (CDC42BPA (human)) was 104% and the residual activity (CDK5 CDK5R1 p25 (human)) was 86.7%. For the same compound, the residual activity (CDK9 CCNT1 (human)) was 103%, the residual activity (CHUK (human)) was 104% and the residual activity (CLK3 (human)) was 107%. The residual activity (CSNK1G1 (human)) was 104%, the residual activity (EPHA2 (human)) was 104% and the residual activity (EPHA5 (human)) was 113%. The residual activity (FER (human)) was 99.9%, the residual activity (FGR (human)) was 97.5% and the residual activity (GRK6 (human)) was 93%. It also gave a residual activity (IKBKB (human)) of 100%, a residual activity (INSRR (human)) of 97.7% and a residual activity (MAP3K3 (human)) of 93.4%. It also gave a residual activity (MAPK13 (human)) of 93.3%, a residual activity (MAPK8 (human)) of 106% and a residual activity (MAPK9 (human)) of 102%. It also gave a residual activity (MAPKAPK5 (human)) of 94.1%, a residual activity (MET (human)) of 127% and a residual activity (MKNK2 (human)) of 103%. It also gave a residual activity (PAK1 (human)) of 97.8%, a residual activity (PAK2 (human)) of 103% and a residual activity (PAK3 (human)) of 104%. It also gave a residual activity (PAK4 (human)) of 92.8%, a residual activity (PDGFRB (human)) of 102% and a residual activity (PRKCB2 (human)) of 104%. It also gave a residual activity (PRKCI (human)) of 99.5%, a residual activity (PRKG2 (human)) of 105% and a residual activity (PRKX (human)) of 101%. It also gave a residual activity (ROCK1 (human)) of 104%, a residual activity (ROCK2 (human)) of 95.2% and a residual activity (RPS6KA4 KD2 (human)) of 111%. It also gave a residual activity (RPS6KB2 (human)) of 94.9%, a residual activity (SRPK1 (human)) of 104% and a residual activity (SYK (human)) of 99.7%. The residual activity (TSSK2 (human)) was 91.4%, the residual activity (VRK1 (human)) was 85.4% and the residual activity (WNK3 (human)) was 89.2%.

For Cn1cc(/C=C2\C(=O)Nc3ccc(S(N)(=O)=O)cc32)c2ccccc21, the residual activity (ADRBK2 (human)) was 111%, the residual activity (AKT3 (human)) was 97.4% and the residual activity (ALK (human)) was 72.1%. For the same compound, the residual activity (CAMK1 (human)) was 75.7%, the residual activity (CDC42BPA (human)) was 70.7% and the residual activity (CDK5 CDK5R1 p25 (human)) was 58%. It also gave a residual activity (CDK9 CCNT1 (human)) of 65%, a residual activity (CHUK (human)) of 109% and a residual activity (CLK3 (human)) of 81.4%. For the same compound, the residual activity (CSNK1G1 (human)) was 88.3%, the residual activity (EPHA2 (human)) was 93% and the residual activity (EPHA5 (human)) was 69.3%. For the same compound, the residual activity (FER (human)) was 20%, the residual activity (FGR (human)) was 28.4% and the residual activity (GRK6 (human)) was 47.2%. The residual activity (IKBKB (human)) was 101%, the residual activity (INSRR (human)) was 86.9% and the residual activity (MAP3K3 (human)) was 80.7%. For the same compound, the residual activity (MAPK13 (human)) was 105%, the residual activity (MAPK8 (human)) was 108% and the residual activity (MAPK9 (human)) was 93.8%. It also gave a residual activity (MAPKAPK5 (human)) of 88.3%, a residual activity (MET (human)) of 84.2% and a residual activity (MKNK2 (human)) of 71.1%. For the same compound, the residual activity (PAK1 (human)) was 90.8%, the residual activity (PAK2 (human)) was 79.2% and the residual activity (PAK3 (human)) was 93.8%. The residual activity (PAK4 (human)) was 86.2%, the residual activity (PDGFRB (human)) was 66% and the residual activity (PRKCB2 (human)) was 86.7%. For the same compound, the residual activity (PRKCI (human)) was 99.6%, the residual activity (PRKG2 (human)) was 85% and the residual activity (PRKX (human)) was 81%. The residual activity (ROCK1 (human)) was 63.8%, the residual activity (ROCK2 (human)) was 41% and the residual activity (RPS6KA4 KD2 (human)) was 71.2%. For the same compound, the residual activity (RPS6KB2 (human)) was 94.6%, the residual activity (SRPK1 (human)) was 69% and the residual activity (SYK (human)) was 16.5%. For the same compound, the residual activity (TSSK2 (human)) was 84%, the residual activity (VRK1 (human)) was 103% and the residual activity (WNK3 (human)) was 99%.
